PMC12362796, “Bilirubin Targeting WNK1 to Alleviate NLRP3‐Mediated Neuroinflammation” (Advanced Science, 2025)
pKd: −log10 of the molar value.

Columns and labels:
TRPM2 channels = test system: TRPM2 channels; set-up: method as in PMID 36921602; conditions: structural derivative of bilirubin; previous research; cited from earlier work
full-length hWNK1 = target: T1, full-length hWNK1 (Homo sapiens, UniProt Q9H4A3); test: MicroScale Thermophoresis (MST), EGFP-tagged full-length WNK1 in HEK293T cell lysates; format: binding; conditions: 15 min incubation, lysates of EGFP-WNK1 expressing HEK293T cells, control ligand
T1 construct: We overexpressed full‐length WNK1 fused with Green Fluorescent Protein (GFP); expressed in transfected cells; host or cells: HEK293T
Procedure: To validate the direct binding of bilirubin to WNK1, we performed a Microscale Thermophoresis (MST) analysis, which assesses the binding capacity of a compound by measuring the movement of proteins over a microscopic temperature gradient.^[ [26], [27] ^] We overexpressed full‐length WNK1 fused with Green Fluorescent Protein (GFP) in HEK‐293 cells, incubated the lysates with bilirubin at varying dilutions, and subjected them to precise MST measurements in capillaries. […] Furthermore, biliverdin, a structurally similar intermediate product generated before bilirubin formation, was used as a control.
All WNK1 clones were derived from the original untagged hWNK1 cDNA (NM_018979), which was modified and subcloned into the pcDNA3.1, referred to as “full‐length WNK1” throughout this study. Truncated constructs, including 1–190aa, 191–491aa, 1–491aa, and 491–2382aa fragments, were generated by PCR using the full‐length template and subsequently ligated into linearized pcDNA3.1 vectors. WNK2 was obtained from Addgene Plasmid #24569, and WNK3 was obtained from Addgene Plasmid #81723. Both were subjected to base modifications and cloned into pcDNA3.1. The WNK4 clone was derived from hWNK4 cDNA (NM_032387.5), modified, and subcloned into the pCMV3‐C‐GFPSpark vector.
In HEK293T cells, proteins tagged with green fluorescent protein (GFP) were expressed. […]

[1] = test system: primary cultured hippocampal neurons; test: MQAE intracellular chloride measurement in primary cultured hippocampal neurons; format: cell-based, mouse; conditions: co-treatment with bilirubin, DIV8 primary hippocampal neurons, MQAE
Source text: Therefore, we hypothesized that bilirubin activation of WNK1 kinase activity might affect intracellular chloride levels. […] This was detected using the sensitive molecular probe N‐(Ethoxycarbonylmethyl)‐6‐Methoxyquinolinium Bromide (MQAE), as indicated by a reduction in MQAE fluorescence intensity (Figure 4C,E).^[ [32] ^]
To ascertain whether bilirubin regulates chloride ions through WNK1, we generated Wnk1 gene knockout primary cultured neurons. We achieved neuron‐specific deletion of Wnk1 in hippocampal neurons by transducing primary neurons isolated from Wnk1^flox/flox embryonic mice with a lentivirus expressing hSyn‐Cre‐EGFP.^[ [33], [34] ^] […] Intracellular chloride concentration is crucial for modulating inhibitory synaptic transmission and, consequently, neuronal excitability.
Since bilirubin‐induced activation of WNK1 kinase activity increases [Cl⁻]i in neurons, we sought to elucidate the downstream effector proteins of WNK1 that are involved in this process. Neuronal [Cl⁻]i is primarily regulated by the Cl⁻‐K⁺ symporter KCC2, with additional modulation by factors such as the Na⁺‐K⁺‐Cl⁻ co‐transporter NKCC1, GABAA receptors, and glycine receptors (GlyR), all of which contribute to [Cl⁻]i homeostasis.^[ [31] ^] To investigate the mechanism underlying bilirubin‐induced changes in [Cl⁻]i, we selectively targeted these proteins using pharmacological inhibitors (VU0463271 for KCC2, bumetanide for NKCC1, bicuculline for GABAA receptors, and strychnine for GlyR) and activated KCC2 using CLP257.^[ [35], [36] ^] […] The bilirubin‐induced effect on [Cl⁻]i was not observed in primary astrocytes (Figure S15A,B, Supporting Information) or the HEK 293T cell line (Figure S15C, Supporting Information), both of which lacked KCC2 expression (Figure S16A,B, Supporting Information), further confirming that the effects of bilirubin and WNK1 on [Cl⁻]i elevation are dependent on KCC2.
Intracellular chloride concentration ([Cl⁻]i) was measured using the MQAE fluorescent dye (Life Technologies) following established protocols (Zhang, Lee et al. 2015). […]

T1 sequence (Q9H4A3 whole entry, the tested form may be a part): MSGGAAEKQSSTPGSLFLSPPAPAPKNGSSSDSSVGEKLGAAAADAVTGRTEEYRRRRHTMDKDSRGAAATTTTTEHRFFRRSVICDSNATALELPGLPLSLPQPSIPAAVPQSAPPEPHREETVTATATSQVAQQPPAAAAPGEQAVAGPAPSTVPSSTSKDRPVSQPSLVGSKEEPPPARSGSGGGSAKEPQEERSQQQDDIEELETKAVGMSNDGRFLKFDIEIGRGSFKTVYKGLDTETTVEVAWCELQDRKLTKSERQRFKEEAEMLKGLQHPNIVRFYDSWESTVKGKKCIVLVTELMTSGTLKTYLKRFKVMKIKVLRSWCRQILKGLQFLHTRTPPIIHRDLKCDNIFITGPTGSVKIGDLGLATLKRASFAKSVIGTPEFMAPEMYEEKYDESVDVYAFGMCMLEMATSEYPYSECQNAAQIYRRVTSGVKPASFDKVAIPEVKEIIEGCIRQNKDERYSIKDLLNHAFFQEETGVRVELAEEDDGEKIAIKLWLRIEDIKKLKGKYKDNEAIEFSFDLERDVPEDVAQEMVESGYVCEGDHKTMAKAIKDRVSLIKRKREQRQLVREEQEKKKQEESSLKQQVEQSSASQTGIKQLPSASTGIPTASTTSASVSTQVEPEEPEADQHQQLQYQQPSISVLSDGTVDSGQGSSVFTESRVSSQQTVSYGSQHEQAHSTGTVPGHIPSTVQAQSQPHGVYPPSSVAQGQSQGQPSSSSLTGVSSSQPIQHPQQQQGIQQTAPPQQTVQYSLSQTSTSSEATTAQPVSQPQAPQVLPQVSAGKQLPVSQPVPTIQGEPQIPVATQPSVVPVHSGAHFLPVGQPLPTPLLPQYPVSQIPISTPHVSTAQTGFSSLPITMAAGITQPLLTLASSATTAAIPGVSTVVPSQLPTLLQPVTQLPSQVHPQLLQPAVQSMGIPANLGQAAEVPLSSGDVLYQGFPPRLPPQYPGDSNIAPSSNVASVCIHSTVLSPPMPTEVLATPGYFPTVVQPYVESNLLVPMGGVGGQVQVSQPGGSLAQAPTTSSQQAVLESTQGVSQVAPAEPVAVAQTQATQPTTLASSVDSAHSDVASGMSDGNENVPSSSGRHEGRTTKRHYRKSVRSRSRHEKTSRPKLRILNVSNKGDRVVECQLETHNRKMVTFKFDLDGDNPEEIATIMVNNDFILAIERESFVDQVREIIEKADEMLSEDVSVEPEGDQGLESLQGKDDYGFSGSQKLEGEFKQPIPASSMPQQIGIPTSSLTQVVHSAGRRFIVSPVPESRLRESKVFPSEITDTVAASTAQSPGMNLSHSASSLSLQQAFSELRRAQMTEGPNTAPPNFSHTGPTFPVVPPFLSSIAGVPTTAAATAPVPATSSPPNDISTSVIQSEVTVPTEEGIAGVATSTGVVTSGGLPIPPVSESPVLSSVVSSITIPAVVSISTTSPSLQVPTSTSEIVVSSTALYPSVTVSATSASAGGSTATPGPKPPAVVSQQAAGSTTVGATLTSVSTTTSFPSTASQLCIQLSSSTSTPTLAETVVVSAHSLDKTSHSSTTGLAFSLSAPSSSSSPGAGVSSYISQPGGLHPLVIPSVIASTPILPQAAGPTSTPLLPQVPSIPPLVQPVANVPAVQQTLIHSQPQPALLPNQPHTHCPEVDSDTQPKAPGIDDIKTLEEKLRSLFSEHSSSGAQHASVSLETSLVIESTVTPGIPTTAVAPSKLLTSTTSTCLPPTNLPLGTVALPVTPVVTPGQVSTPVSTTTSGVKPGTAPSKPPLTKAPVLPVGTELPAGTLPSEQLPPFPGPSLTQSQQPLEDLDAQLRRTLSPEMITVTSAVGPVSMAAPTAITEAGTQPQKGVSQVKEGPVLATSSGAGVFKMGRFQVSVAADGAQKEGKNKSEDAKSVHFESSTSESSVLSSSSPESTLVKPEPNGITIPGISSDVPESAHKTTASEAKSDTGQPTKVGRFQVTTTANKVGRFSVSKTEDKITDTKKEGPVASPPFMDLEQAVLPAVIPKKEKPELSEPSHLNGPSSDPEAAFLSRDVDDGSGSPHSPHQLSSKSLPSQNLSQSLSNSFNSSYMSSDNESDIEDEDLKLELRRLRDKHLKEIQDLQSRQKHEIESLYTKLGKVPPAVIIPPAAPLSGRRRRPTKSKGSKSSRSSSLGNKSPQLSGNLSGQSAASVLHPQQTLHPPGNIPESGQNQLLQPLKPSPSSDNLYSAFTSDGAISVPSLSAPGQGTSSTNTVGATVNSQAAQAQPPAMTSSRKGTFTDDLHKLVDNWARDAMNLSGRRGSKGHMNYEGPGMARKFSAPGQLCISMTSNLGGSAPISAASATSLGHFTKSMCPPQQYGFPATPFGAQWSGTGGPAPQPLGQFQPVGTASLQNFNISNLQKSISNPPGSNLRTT

pKd (full-length hWNK1)	Structure (SMILES)	activation of TRPM2 channels (TRPM2 channels)	effect on bilirubin-induced elevation of [Cl−]i [1]
4.53	C=CC1=C(C)/C(=C/C2=NC(=C\c3[nH]c(/C=C4\NC(=O)C(C)=C4C=C)c(C)c3CCC(=O)O)/C(CCC(=O)O)=C2C)NC1=O [Biliverdin, reference compound]	can activate	–
–	O=C1N=C(N2CCCCN2)S/C1=C\c1ccc(F)cc1O [CLP257, reference compound]	–	counteracted the effect of bilirubin
